In US8173699B2, “Compounds for the treatment of inflammatory diseases” (Boehringer Ingelheim International GmbH, priority 2005, dated 2012):
Counter-ions that a name gives are not always drawn.

Row | melting point [°C] | Structure (SMILES)
1 | 253 to 254 | CN(C)C(=O)CN(c1cccc(N/C(=C2\C(=O)Oc3ccccc32)c2ccc(CN)c(F)c2)c1)S(C)(=O)=O (as salt: HCl) [Example 101]
2 | 214 to 217 | CN1C(=O)/C(=C(\Nc2ccc(-c3cn(C)cn3)cc2)c2ccc(CN)cc2)c2ccccc21 [Example 36, 3-{(4-aminomethylphenyl)-[4-(1-methyl-1H-imidazol-4-yl)phenylamino]methylene}-1-methyl-1,3-dihydroindol-2-one]
3 | 196 to 197 | Cc1nc(-c2ccc(N/C(=C3\C(=O)Oc4ccccc43)c3ccc(CN)c(F)c3)cc2)cs1 [Example 102]
